In PubChem BioAssay (NCI):
Values joined by “and” are separate entries in the source; they are usually repeats but may differ in a detail not shown here. Equal entries are not always repeated.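 Method: 48-hour compound exposure of cells in 96-well plates, five concentrations, linear interpolation of endpoints. The concentration for 50% growth inhibition is given as GI50. TGI: total growth inhibition.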

Columns and labels:
Experiment in all cases: NCI-60 cell line screen, 48 h
ACHN renal = tested on: ACHN renal
BT-549 breast = tested on: BT-549 breast
CCRF-CEM leukemia = tested on: CCRF-CEM leukemia
EKVX NSCLC = tested on: EKVX NSCLC
KM12 colon = tested on: KM12 colon
MOLT-4 leukemia = tested on: MOLT-4 leukemia
SK-MEL-2 melanoma = tested on: SK-MEL-2 melanoma
SK-MEL-28 melanoma = tested on: SK-MEL-28 melanoma
SN12C renal = tested on: SN12C renal
SNB-19 CNS = tested on: SNB-19 CNS

| SMILES | GI50 (ACHN renal) | TGI (ACHN renal) | GI50 (BT-549 breast) | TGI (BT-549 breast) | GI50 (CCRF-CEM leukemia) | TGI (CCRF-CEM leukemia) | GI50 (EKVX NSCLC) | GI50 (KM12 colon) | TGI (KM12 colon) | GI50 (MOLT-4 leukemia) | TGI (MOLT-4 leukemia) | GI50 (SK-MEL-2 melanoma) | TGI (SK-MEL-2 melanoma) | GI50 (SK-MEL-28 melanoma) | TGI (SK-MEL-28 melanoma) | GI50 (SN12C renal) | TGI (SN12C renal) | GI50 (SNB-19 CNS) | TGI (SNB-19 CNS) | TGI (EKVX NSCLC) |
| --- | --- | --- | --- | --- | --- | --- | --- | --- | --- | --- | --- | --- | --- | --- | --- | --- | --- | --- | --- | --- |
| CNC(=O)CN1CCC(Oc2cc3c(Nc4cccc(Cl)c4F)ncnc3cc2OC)CC1 | < 0.0224 µM and 0.0561 µM | 25.6 µM and > 10 µM | 16.2 µM and > 10 µM | 38.9 µM and > 10 µM | 24.6 µM and > 5.76 µM | 81 µM and > 10 µM | < 0.0147 µM and 0.0154 µM | 17.3 µM and > 5.89 µM | 32.4 µM and > 10 µM | 16 µM and > 6.28 µM | > 74.5 µM | 16.7 µM and > 7.55 µM | 34.1 µM and > 10 µM | 19.2 µM and > 7.55 µM | 47.3 µM and > 10 µM | 2.96 µM and 3.42 µM | > 100 µM | 31.5 µM and > 8.29 µM | > 100 µM |  |
| C[C@@H]1OCC2(CCN(c3cnc(Sc4ccnc(N)c4Cl)c(N)n3)CC2)[C@@H]1N | 4.71 µM | > 100 µM | 34.6 µM | > 100 µM | > 95.6 µM | > 100 µM | 0.573 µM | 5.46 µM | > 100 µM | > 90.9 µM | > 100 µM | > 100 µM | > 100 µM | > 100 µM | > 100 µM | 27.7 µM | > 100 µM | > 100 µM | > 100 µM | > 100 µM |
| Nc1c2ccccc2nc2ccccc12 (tested in a mixture with another compound) | 0.779 µM | 8.72 µM | 4.42 µM | 17.6 µM | 2.72 µM | 77.3 µM | 2.01 µM | 2.22 µM | 6.77 µM | 2.32 µM | 13.1 µM | 2.16 µM | 4.23 µM | 1.99 µM | 3.86 µM | 1.53 µM | 12.2 µM | 2.64 µM | 15.7 µM | 7.65 µM |
| Nc1nc(-c2cccs2)cs1 |  | > 100 µM |  | > 100 µM |  | > 100 µM |  |  | > 100 µM |  |  |  | > 100 µM |  | > 100 µM |  | > 100 µM |  | > 100 µM | > 100 µM |
| CC(=O)[O][Bi]([c]1ccccc1)[c]1ccccc1 | 11.8 µM | 24.4 µM | 2.94 µM | 9.32 µM | 2.27 µM | 5 µM | 19.4 µM | 15.8 µM | 30.1 µM | 2.9 µM | > 100 µM |  |  |  |  | 10.9 µM | 23.6 µM | 12.6 µM | 26.8 µM | 34.5 µM |
| Cc1cc2nc(C(Cl)Cl)nc(-c3ccccc3)n2n1 | 1.87 µM | 5.12 µM | 17.4 µM | > 100 µM | 25.8 µM | > 100 µM | 3.72 µM | 1.78 µM | 4.86 µM | 5.67 µM | > 100 µM | 27.8 µM | > 100 µM | 3.54 µM | 13.1 µM | 24.7 µM | > 100 µM | 4.04 µM | 28 µM | 20.3 µM |
| CCN1CCN(c2ccc(Nc3ncc4ccc5ncn(C(C)C)c5c4n3)nc2)CC1 | 0.0402 µM | 10.6 µM | 0.218 µM | 0.687 µM | 0.145 µM | 3.63 µM | 0.131 µM | 0.123 µM | 0.719 µM | 0.0416 µM | 1.91 µM | 0.144 µM | 0.357 µM | 0.2 µM | 1.45 µM | 0.139 µM | 17.9 µM | 0.187 µM | 15.5 µM | 0.563 µM |
| Cn1c(=N)n[n+]([O-])c2ccccc21 |  | 23.5 µM and 22 µM |  | 3.27 µM and 3.46 µM |  | 21.2 µM and 48.7 µM |  |  | 37.8 µM and 36.7 µM |  | 5.57 µM and 5.16 µM |  | 8.87 µM and 12.5 µM | 2.42 µM and 7.01 µM | 5.88 µM and 15.6 µM |  | 3.29 µM and 4.19 µM | 2.63 µM and 6.41 µM | 12.3 µM and 13.3 µM | 18.3 µM |
| CCN(CC)CC[n+]1cc2cc(OC)c(OC)cc2c2ccc3cc4c(cc3c21)OCO4 | 1.25 µM | 4.07 µM | 1.11 µM | 2.88 µM | 0.325 µM | 20.1 µM | 0.967 µM | 0.515 µM | 2.46 µM | 0.37 µM | 4.64 µM | 1.64 µM | 4.59 µM | 1.48 µM | 2.93 µM | 0.309 µM | 1.21 µM | 0.452 µM | 1.77 µM | 4.04 µM |
| Cc1nn(C)c2cc(N(C)c3ccnc(Nc4cccc(S(N)(=O)=O)c4)n3)ccc12 | 6.71 µM | > 25 µM | 8.69 µM | > 23.5 µM | 7.3 µM | > 25 µM | 6.92 µM | 7.38 µM | > 25 µM | 6.62 µM | > 23.8 µM | 9.32 µM | > 25 µM | 9 µM | > 25 µM | 6.59 µM | > 25 µM | 13.2 µM | > 25 µM | > 25 µM |
| Nc1ncnc2c1ncn2C1OC(COC2C(CO)OC(OC(C(=O)O)C(O)C(OP(=O)(O)O)C(O)C(=O)O)C(O)C2O)C(O)C1O (stereo unspecified) |  | > 100 µM |  | > 100 µM |  | > 100 µM |  |  | > 100 µM |  | > 100 µM |  | > 100 µM |  | > 100 µM |  |  |  | > 100 µM | > 100 µM |
| COc1ccc2nc(-c3cc4c([nH]c5ccccc54)c(-c4ccc(F)c(F)c4)n3)[nH]c2c1 | 3.2 µM | 12.6 µM | 6.3 µM | 22.5 µM | 2.36 µM | 7.8 µM |  | 2.93 µM | 13 µM | 2.03 µM | 7.39 µM | 12.1 µM | 34.9 µM | 12.7 µM | 27 µM | 3.97 µM | 23.5 µM | 8.57 µM | > 100 µM |  |
| Nc1ccccc1C#Cc1ccccc1C#Cc1cnccn1 | 24.1 µM | 46.2 µM | 13.7 µM | 28.7 µM | 33.2 µM | > 100 µM | 14.1 µM | 11 µM | 23.9 µM | 40.8 µM | > 100 µM |  |  | 17.5 µM | 32 µM | 15.2 µM | 30 µM | 20.1 µM | 40.5 µM | 27.7 µM |
